The values that follow come from the NIST ThermoML archive (doi:10.1021/je8002157).

The conditions of this series: Crystal; DTA.

± gives the expanded uncertainty stated by the source.

In the case of `NC(=O)N1c2ccccc2C=Cc2ccccc21` [carbamazepine], the Normal melting temperature was determined as 193.00 ± 1 °C.
